Measurements published in patent US7135457B1, “Random peptides that bind to gastro-intestinal tract (GIT) transport receptors and related methods” (Cytogen Corporation, priority 1997, dated 2006).
Square brackets hold non-standard residues; d marks the D form. Peptide text beside a SMILES is read from it. * marks the point of attachment. Dansyl = CN(C)c1cccc2c(S(=O)(=O)*)cccc12

Assays:
[1] = system: P100 fractions harvested from Caco-2 cells; assay: Binding of dansylated peptides to P100 fractions and peptide/particle correlation; details: two consecutive assays; versus scrambled PAX2 control
Protocol: Binding of peptide and/or peptide-coated PLGA particles to membrane (P100) and cytosolic (S100) fractions was assessed by detection of the dansyl moiety incorporated in the peptide. Costar ninety six well ELISA plates were coated with S100 and P100 fractions (100 μg/ml in 0.05 M NaHCO3) overnight at 4° C. The plates were blocked with 0.5% bovine serum albumin in DPBS for 1 h at room temperature and washed 3 times in 1% BSA-DPBS. Peptide-coated particles or peptides were dispersed in the same buffer and added to the plates at concentrations in the range 0.0325-0.5 mg/well. […] The plates were incubated for 1 h at room temperature. The wells were washed 3 times in 1% BSA-DPBS and 100 μl of goat anti-mouse IgGλ:HRP antibody (Southern Biotechnology 1060-05; 1:10,000) was added per well. The plates were incubated for 1 h at room temperature. After washing 3 times in 1% BSA-DPBS 100 μl of TMB substrate (3,3′,5′,5-tetramethylbenzidine; Microwell Peroxidase Substrate System (Kirkegaard and Perry Laboratories 50-76-00)) was added and the optical density was measured at 650 nm at various time intervals.
Binding of dansylated peptides to P100 fractions was assessed to determine if peptide binding was predictive of peptide-coated particle binding.

[2] = Peptide stability in simulated intestinal fluid (SIF); type: in vitro ADME; details: rank of relative stability to SIF, 1 = most stable
Protocol: The relative stability for ZElan031, ZElan053 and ZElan054 was determined in simulated intestinal fluid (SIF) SIF was made by dissolving 100 mg of pancreatin (Sigma cat# P-5 1625, lot# 122H0812) in 8.4 ml of phosphate stock solution, adjusting the pH to 7.5 with 0.2N NaOH and adjusting the volume to 10 ml with water.
Peptide (3.25 mg) was dissolved in 3.25 ml of 10,000 fold diluted SIF solution at 37° C. Aliquots (0.7 ml) of the digestion solution were then withdrawn at <1 min, 1 h, 3 h, and 21 h or 24 h. The samples were quickly passed through a syringe filter (Millipore Millex-GV 0.22 μm, part# SLGV025LS, lot# H2BM95250) and 300 μL of the filtered solution was immediately injected onto a Hewlett-Packard HPLC system equipped with a C-8 column (Applied Biosystems column and guard column: column-p/n 0711-0023 Spheri-5 ODS 5 μm, 220×4.6 mm). The products were eluted at 1.5 ml/min using an acetonitrile-water gradient. The major fluorescent peaks were collected, lyopholized and identified by MS analysis.

[3] = system: polarized Caco-2 monolayers; assay: Transport and uptake of GST-peptide fusions across/into polarized Caco-2 monolayers (anti-GST ELISA); type: in vitro ADME; details: 100 μg/ml GST fusion
Protocol: Transport and uptake of GST-peptide fusions and deletion derivatives across cultured polarized Caco-2 monolayers over 4 hours in HBSS buffer was examined using an anti-GST ELISA assay. In another experiment, transport and uptake of GST-peptide fusions and deletion derivatives across cultured polarized Caco-2 monolayers over 24 hours in serum-free medium (SFM) was examined using an anti-GST ELISA assay.
a) 4 h HBSS study: Transepithelial electrical flux (TER) across the Caco-2 monolayers grown on snapwells (passage 33; 23 days old) was measured to confirm monolayer integrity before beginning the experiment. The medium was removed and the cells were washed once with bHBSS. bHBSS containing 100 μM chloroquine was added and the cells were incubated for 2 h at 37° C. The bHBSS+chloroquine was replaced with 0.5 ml bHBSS containing GST-peptide fusions (100 μg/ml) and the cells were incubated as before. […] At 4 h, TER was measured, the apical medium was sampled and the apical reservoir was washed 6 times with HBSS. […]
b) 24 h SFM study: Transepithelial electrical flux (TER) across the Caco-2 monolayers grown on snapwells (passage 33; 23 days old) was measured to confirm monolayer integrity before beginning the experiment. […] After 24 hours, TER readings were taken, and samples from the basolateral and apical reservoirs were removed. […]

[4] = system: fixed Caco-2 or C2BBe1 cells; assay: ELISA of GST fusion proteins on fixed Caco-2 or C2BBe1 cells; type: binding; details: Caco-2
Protocol: Fixed Caco-2, C2BBe1, and A431 cell plates were prepared by growing cells on tissue culture treated microtiter plates. When cells were confluent, plates were fixed with 10% formaldehyde, washed twice with PBS and stored with 0.5% BSA-PBS at −20° C. […] The standard ELISA procedure was followed at this point.
The standard ELISA procedure was modified as follows. GST proteins were diluted to an appropriate concentration in PBS containing 1% BSA and 0.05% Tween20 (1% BPT), titered and incubated one hour at room temperature. Following five washes an anti-GST monoclonal antibody was added (Sigma, St. Louis Clone GST-2 diluted 1:10,000 in 1% BPT) and incubated one hour. After five more washes goat anti-mouse IgG2b-HRP was added (Southern Biotechnology Associates Inc., Birmingham, Ala., diluted 1:4000 in 1% BPT) and incubated one hour. After five washes plates were developed with TMB peroxidase substrate (Kirkegard and Perry, Gaithersburg, Md.). All data is presented with background binding subtracted.

fixed Caco-2 cells = assay: Effect of thrombin cleavage on binding of GST-peptide fusions to fixed Caco-2 cells; details: Caco-2
Protocol: Binding of intact and thrombin-cleaved GST-peptide fusions to fixed Caco-2 cells was compared.
Thirty micrograms of each GST-peptide was treated with bovine thrombin (1μ/ml; 0.4 NIH units; Sigma CN.T9681) for 18 h at room temperature in 20 mM Tris-HCl pH8.0, 150 mM NaCl, 2.5 mM CaCl2. Controls were similarly treated without addition of thrombin. Ten micrograms of each GST-peptide fusion was removed for PAGE analysis, and 10 μg of fusions were added in duplicate to the fixed Caco-2 cells before 5-fold serial dilutions (1% BPT diluent). The fusions were allowed to bind for 1 h at room temperature. Following 6 washes with 1% BPT, binding was assayed by ELISA.

[5] = Crossreactive binding of GST fusions to dansylated peptides; details: 0.5 μg/ml GST fusion

| Rel. Stab. [2] | effect of thrombin cleavage on detection of binding to fixed Caco-2 cells (fixed Caco-2 cells) | crossreactive binding to ZElan024 (P31) and ZElan018 (PAX2) [5] | Compound | binding of dansylated peptide to P100 fractions [1] | transport (flux) across live Caco-2 monolayers, apical to basolateral [3] | binding to fixed Caco-2 or C2BBe1 cells relative to GST control [4] |
| --- | --- | --- | --- | --- | --- | --- |
| 1 |  |  | C[C@@H](O)[C@H](NC(=O)[C@@H](N)CCCCNS(=O)(=O)c1cccc2c(N(C)C)cccc12)C(=O)N[C@H](CCCNC(=N)N)C(=O)N[C@@H](CCCCN)C(=O)N[C@@H](CO)C(=O)N[C@@H](CO)C(=O)N[C@H](CCCNC(=N)N)C(=O)N[C@@H](CO)C(=O)N[C@@H](CC(N)=O)C(=O)N1CCC[C@H]1C(=O)N[C@H](CCCNC(=N)N)C(=O)NCC(=O)N[C@H](CCCNC(=N)N)C(=O)N[C@H](CCCNC(=N)N)C(=O)N[C@@H](Cc1c[nH]cn1)C(=O)N1CCC[C@H]1C(=O)NCC(N)=O [ZElan053, H2N-K(dns)TrKSSrSNPrGrrHPG-CONH2] (H-K(Dansyl)T[dR]KSS[dR]SNP[dR]G[dR][dR]HPG-NH2) | binding at the highest dilution only |  |  |
|  | significantly reduced |  | gst-RYKHDIGCDAGVDKKSSSVRGGCGAHSSPPRAGRGPRGTMVSRL [GST-DCX8] |  | higher flux than GST alone | bound |
|  |  | no crossreactive binding | gst-SARDSCPAEDGSRAVRLNGVENANTRKSSRSNPRGRRHP [GST-P31] |  | higher flux than GST alone | bound |
